# Assay results from patent US8820316B2, “Drug delivery apparatus” (Respironics Respiratory Drug Delivery (UK) Ltd, priority 2000, dated 2014).
# B1: rhDNase: Pulmozyme (recombinant, human DNase), mucoactive drug for cystic fibrosis lung disease (protein, UniProt P24855 23-282, looked up)
# Deoxyribonuclease-1: LKIAAFNIQTFGETKMSNATLVSYIVQILSRYDIALVQEVRDSHLTAVGKLLDNLNQDAPDTYHYVVSEPLGRNSYKERYLFVYRPDQVSAVDSYYYDDGCEPCGNDTFNREPAIVRFFSRFTEVREFAIVPLHAAPGDAVAEIDALYDVYLDVQEKWGLEDVMLMGDFNAGCSYVRPSQWSSIRLWTSPTFQWLIPDSADTTATPTHCAYDRIVVAGMLLRGAVVPDSALPFNFQAAYGLSDQLAQAISDHYPVEVMLK
# modifications: dornase alfa
# Key:
# [1] = Budesonide study in 481 children with asthma using conventional nebulizers, asthma symptom score; assay type: in vivo; settings: Conventional Nebuliser; for daytime asthma symptom score, End of Study: 12 weeks; for daytime asthma symptom score, End of Study / daytime asthma symptom score, Baseline at entry: visual analogue range 0-3
# Procedure: The study in 481 children with asthma using conventional nebulizers delivered five different regimes. Nominal nebulizer doses were in the range 250/1000 μg daily and placebo over a 12 week period. Their asthma symptoms by the parents using a visual analogue scores, the asthma scores reduced from 1.21/1.33 to 0.87/0.93.
# [2] = Budesonide study in 125 children with asthma using the system of the invention, asthma symptom score; assay type: in vivo; settings: Improved Invention System, 200/50 μg; for daytime asthma symptom score, Baseline at entry / daytime asthma symptom score, End of Study: visual analogue range 0-3
# Procedure: A study in 125 children with asthma using the system disclosed in this patent delivered three different regimes of a short duration (2-12 weeks) high delivered daily dose 200 μg followed by a long duration (12-22 weeks) low daily dose delivered dose 50 μg. Their treatment compliance was monitored electronically and their asthma symptoms by the parents using a visual analogue score. The treatment compliance over the study was 80/90% and the asthma scores reduced from a baseline of 1.23/1.27 to 0.23/0.43.
# [3] = system: susceptible bacteria in the endobronchial space; settings: 200-400 mg aminoglycoside in about 5 ml, 0.225% NaCl, pH 5.5-6.5, aerosolised (WO 96/12471); cited from earlier work
# [4] = Sputum tobramycin concentration, conventional nebulizer versus high compliance system; assay type: in vivo, patients; settings: human, inhaled
# Procedure: To compare the performance of a conventional nebulizer and a high compliance system according to this invention using Tobramycin 8 patients received either 300 mg/5 ml via conventional nebulizer or 30 mg delivered dose via the high compliance system. The mean sputum tobramycin concentrations at 2 hours were 128 μg/g for the conventional nebulizer and 98 μg/g for the high compliance system. This study may indicate that an even lower dose may be acceptable to achieve the MIC level when delivered with a high compliance system such as disclosed in this invention, in the range 5-30 mg Tobramycin.
# [5] = system: Pseudomonas aeriginosa; settings: typically required, for 90% of organisms; to be maintained for 120 minutes; cited from earlier work
# [6] = rhDNase response (FEV1) in adult CF patients who previously failed to respond; assay type: in vivo
# Description: Mean change in FEV1 was 11.51%.
# [7] = when starting rhDNase therapy; cited from earlier work
molecule,measurement,setting,value
CCCC1O[C@@H]2C[C@H]3[C@@H]4CCC5=CC(=O)C=C[C@]5(C)[C@H]4[C@@H](O)C[C@]3(C)[C@]2(C(=O)CO)O1 (stereo partly shown) [Budesonide],"daytime asthma symptom score, Change",[1]; 250 μg once daily,−0.28
same,"daytime asthma symptom score, End of Study",[1]; 250 μg once daily,0.93
same,"daytime asthma symptom score, Baseline at entry",[1]; 250 μg once daily,1.21
same,"daytime asthma symptom score, Change",[1]; 250 μg twice daily,−0.4
same,"daytime asthma symptom score, End of Study",[1]; 250 μg twice daily,0.91
same,"daytime asthma symptom score, Baseline at entry",[1]; 250 μg twice daily,1.31
same,"daytime asthma symptom score, Change",[1]; 500 μg twice daily,−0.46
same,"daytime asthma symptom score, End of Study",[1]; 500 μg twice daily,0.87
same,"daytime asthma symptom score, Baseline at entry",[1]; 500 μg twice daily,1.33
same,"daytime asthma symptom score, Change",[1]; 1000 μg once daily,−0.37
same,"daytime asthma symptom score, End of Study",[1]; 1000 μg once daily,0.91
same,"daytime asthma symptom score, Baseline at entry",[1]; 1000 μg once daily,1.28
same,"daytime asthma symptom score, Change",[2]; 2/22 weeks,−1
same,"daytime asthma symptom score, Baseline at entry",[2]; 2/22 weeks,1.23
same,"daytime asthma symptom score, End of Study",[2]; 2/22 weeks,0.23
same,"daytime asthma symptom score, Change",[2]; 6/18 weeks,−0.83
same,"daytime asthma symptom score, Baseline at entry",[2]; 6/18 weeks,1.26
same,"daytime asthma symptom score, End of Study",[2]; 6/18 weeks,0.43
same,"daytime asthma symptom score, Change",[2]; 12/12 weeks,−0.91
same,"daytime asthma symptom score, Baseline at entry",[2]; 12/12 weeks,1.27
same,"daytime asthma symptom score, End of Study",[2]; 12/12 weeks,0.36
NC[C@H]1O[C@H](O[C@H]2[C@H](O)[C@@H](O[C@H]3O[C@H](CO)[C@@H](O)[C@H](N)[C@H]3O)[C@H](N)C[C@@H]2N)[C@H](N)C[C@@H]1O [Tobramycin],suppresses and inhibits susceptible bacteria,[3],at least 95%
same,concentration at 2 h,[4]; 30 mg delivered dose via the high compliance system,98000 ng/g
same,concentration at 2 h,[4]; 300 mg/5 ml via conventional nebulizer,128000 ng/g
same,MIC level,[5],> 16 mg/L
B1,Mean change in FEV1,"[6]; 10 days, 0.25 ml/0.25 mg of the formulation, high compliance delivery system",11.51%
same,"mean response to therapy, change in FEV1",[6]; previous rhDNase therapy with conventional nebulizer devices,4.17%
same,patients showing a greater than 10% change in FEV1 over baseline,[7],Approximately 38%
